The record followed here is US20010014694A1, “Substituted phenyl compounds and derivatives thereof that modulate the activity of endothelin” (priority 1996, published 2001).

One data set deals with T1, human ETB receptor (Homo sapiens, UniProt P24530).
T1 construct: expressed in transfected cells; host or cells: COS7 cells, membrane preparation
T1 sequence (P24530 27-442): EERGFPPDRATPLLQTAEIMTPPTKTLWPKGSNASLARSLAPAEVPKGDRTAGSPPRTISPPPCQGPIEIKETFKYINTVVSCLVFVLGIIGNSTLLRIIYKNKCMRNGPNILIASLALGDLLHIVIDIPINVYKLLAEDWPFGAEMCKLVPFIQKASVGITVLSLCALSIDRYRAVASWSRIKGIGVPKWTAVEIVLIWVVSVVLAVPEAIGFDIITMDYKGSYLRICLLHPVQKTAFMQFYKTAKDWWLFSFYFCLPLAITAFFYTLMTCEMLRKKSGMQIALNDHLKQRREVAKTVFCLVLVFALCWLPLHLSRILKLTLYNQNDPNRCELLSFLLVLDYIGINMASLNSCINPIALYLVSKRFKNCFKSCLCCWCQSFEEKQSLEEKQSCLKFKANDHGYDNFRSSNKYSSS
The data set is described as follows: Binding Test #2: inhibition of 125I-labeled ET-1 binding to ETB receptors (transfected COS7 cell membranes). To be noted: ETB over ETA; preferably at least 3-fold greater affinity, more preferably 5-fold or more. From the text:
(§1) Compounds that are potential endothelin antagonists are identified by testing their ability to compete with ^125I-labeled ET-1 for binding to human ETA receptors or ETB receptors present on isolated cell membranes. The effectiveness of the test compound as an antagonist or agonist of the biological tissue response of endothelin can also be assessed by measuring the effect on endothelin induced contraction of isolated rat thoracic aortic rings. The ability of the compounds to act as antagonists or agonists for ETB receptors can be assess by testing the ability of the compounds are to inhibit endothelin-1 induced prostacyclin release from cultured bovine aortic endothelial cells.
(§2) B. Endothelin Binding Inhibition—Binding Test #2: Inhibition of Binding to ETB Receptors
(§3) COS7 cells were transfected with DNA encoding the ETB receptor, The resulting cells, which express the human ETB receptor, were grown to confluence in T-150 flasks. Membrane was prepared as described above. The binding assay was performed as described above using the membrane preparation diluted with binding buffer to a concentration of 1 μg/50 μl.
Briefly, the COS7 cells, described above, that had been transfected with DNA encoding the ETB receptor and express the human ETB receptor on their surfaces were grown to confluence in T-175 flasks. Cells from multiple flasks were collected by scraping, pooled and centrifuged for 10 min at 190×g. The cells were resuspended in phosphate buffered saline (PBS) containing 10 mM EDTA using a Tenbroeck homogenizer. The suspension was centrifuged at 4° C. 57,800×g for 15 min, the pellet was resuspended in 5 ml of buffer A (5 mM HEPES buffer, pH 7.4 containing aprotinin (100 KIU/ml)) and then frozen and thawed once. Five ml of Buffer B (5 mM HEPES Buffer, pH 7.4 containing 10 mM MnCl2 and 0.001% deoxyribonuclease Type 1) was added, the suspension mixed by inversion and then incubated at 37° C. for 30 minutes. The mixture was centrifuged at 57,800×g as described above, the pellet washed twice with buffer A and then resuspended in buffer C (30 mM HEPES buffer, pH 7.4 containing aprotinin (100 KIU/ml) to give a final protein concentration of 2 mg/ml.
The binding assay was performed as described above using the membrane preparation diluted to give 1 μg/50 μl of binding buffer.

The subject of the next data set is ETA and ETB receptors. As to the kind of experiment: Endothelin binding inhibition assays of the Examples, result stated for ETA and/or ETB. On the set-up: species or system human. The note with it: relative to the other compounds listed; in vitro binding assays.
Description: as §1
(§4) A. Endothelin Binding Inhibition—Binding Test #1: Inhibition of Binding to ETA Receptors
(§5) TE 671 cells (ATCC Accession No. HTB 139) express ETA receptors. These cells were grown to confluence in T-175 flasks. Cells from multiple flasks were collected by scraping, pooled and centrifuged for 10 min at 190×g. The cells were resuspended in phosphate buffered saline (PBS) containing 10 mM EDTA using a Tenbroeck homogenizer. The suspension was centrifuged at 4° C. at 57,800×g for 15 min, the pellet was resuspended in 5 ml of buffer A (5 mM HEPES buffer, pH 7.4 containing aprotinin (100 KIU/ml)) and then frozen and thawed once. 5 ml of Buffer B (5 mM HEPES Buffer, pH 7.4 containing 10 mM MnCl2 and 0.001% deoxyribonuclease Type 1) was added, the suspension mixed by inversion and then incubated at 37° C. for 30 minutes. The mixture was centrifuged at 57,800×g as described above, the pellet washed twice with buffer A and then resuspended in buffer C (30 mM HEPES buffer, pH 7.4 containing aprotinin (100 KIU/ml) to give a final protein concentration of 2 mg/ml and stored at −70° C. until use.
(§6) The membrane suspension was diluted with binding buffer (30 mM HEPES buffer, pH 7.4 containing 150 mM NaCl, 5 mM MgCl2, 0.5% Bacitracin) to a concentration of 8 μg/50 μl. ^25I-endothelin-1 (3,000 cpm, […]) was added to 50 μl of either: (A) endothelin-1 (for non specific binding) to give a final concentration 80 nM); (B) binding buffer (for total binding); or (C) a test compound (final concentration 1 nM to 100 μM). The membrane suspension (50 μl), containing up to 8 μg of membrane protein, was added to each of (A), (B), or (C). Mixtures were shaken, and incubated at 4° C. for 16-18 hours, and then centrifuged at 4° C. for 25 min at 2,500×g. Alternatively, the incubation was conducted at 24° C. When incubated at 24° C., the IC50 concentrations are 2- to 10-fold higher than when the incubation is conducted at 4° C. This, must be kept in mind when comparing IC50 concentrations among compounds provided herein.
The supernatant, containing unbound radioactivity, was decanted and the pellet counted on a Genesys multiwell gamma counter. The degree of inhibition of binding (D) was calculated according to the following equation: [formula]
Each test was generally performed in triplicate.
as §2, §3
Briefly, the COS7 cells, described above, that had been transfected with DNA encoding the ETB receptor and express the human ETB receptor on their surfaces were grown to confluence in T-175 flasks. Cells from multiple flasks were collected by scraping, pooled and centrifuged for 10 min at 190×g. The cells were resuspended in phosphate buffered saline (PBS) containing 10 mM EDTA using a Tenbroeck homogenizer. The suspension was centrifuged at 4° C. […]

The target in another data set is T2, human ETA receptors (Homo sapiens, UniProt P25101).
T2 construct: endogenous in cells; host or cells: TE 671 cells (ATCC HTB 139), membrane preparation
T2 sequence (P25101 21-427): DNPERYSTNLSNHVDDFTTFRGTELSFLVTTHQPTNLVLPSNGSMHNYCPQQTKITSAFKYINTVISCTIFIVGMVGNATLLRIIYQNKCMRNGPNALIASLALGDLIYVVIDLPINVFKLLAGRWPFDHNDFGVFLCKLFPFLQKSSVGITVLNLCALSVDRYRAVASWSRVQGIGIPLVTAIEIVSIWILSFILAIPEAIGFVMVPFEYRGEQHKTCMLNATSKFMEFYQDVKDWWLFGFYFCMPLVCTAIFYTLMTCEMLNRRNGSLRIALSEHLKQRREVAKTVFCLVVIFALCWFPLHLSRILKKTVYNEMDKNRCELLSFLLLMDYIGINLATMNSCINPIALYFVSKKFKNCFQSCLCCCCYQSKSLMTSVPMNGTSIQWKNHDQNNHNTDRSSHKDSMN
The data set is described as follows: Binding Test #1: inhibition of 125I-labeled ET-1 binding to ETA receptors (TE 671 cell membranes). To be noted: ETA over ETB; preferably at least 3-fold greater affinity, more preferably 5-fold or more.
Description: as §1, §4, §5
as §6, with “When incubated at 24° C., the IC50 concentrations are 2- to 10-fold higher than when the incubation is conducted at 4° C. This, must be kept in mind when comparing IC50 concentrations among compounds provided herein.” left out
The supernatant, containing unbound radioactivity, was decanted and the pellet counted on a Genesys multiwell gamma counter. The degree of inhibition of binding (D) was calculated according to the following equation: [formula] […]

On to “2-[3,4-(methylenedioxy)phenoxy]-6-[2-(1-propenyl)-3,4-(methylenedioxy)phenoxy]benzoic acid [Example 17]”, for which, at human ETB receptor, the “ETB selective (interact with greater affinity with one receptor sub-type than with the other)” value is recorded as “ETB selective”. The “More active among these compounds” value with ETA and ETB receptors was “More active”. For `Cc1ccc(Oc2cccc(Oc3ccc(C)cc3)c2C(=O)O)cc1` [Example 8, 2,6-bis-(4-methylphenoxy)benzoic acid], the melting point was 205 to 206 °C. Besides, the “ETB selective (interact with greater affinity with one receptor sub-type than with the other)” value on human ETB receptor is “ETB selective”. Consider `O=C(O)c1c(Oc2ccccc2)cccc1Oc1ccccc1` [Example 9, 2,6-diphenoxybenzoic acid], for which the melting point was 150 to 153 °C. As for `O=C(O)Cc1cccc(Oc2cccc(Oc3ccc4c(c3)OCO4)c2C(=O)O)c1` [Example 13, 2-[(3-Carboxymethyl)phenoxy]-6-[3,4-(methylenedioxy)phenoxy]benzoic acid], at human ETB receptor, the “ETB selective (interact with greater affinity with one receptor sub-type than with the other)” value is on record as “ETB selective”. Further, the “ETA selective (interact with greater affinity with one receptor sub-type than with the other)” value on human ETA receptors is given as “ETA selective”. As for `COc1cccc(Oc2cccc(Oc3ccc4c(c3)OCO4)c2C(=O)O)c1` [Example 26, 2-[3,4-(methylenedioxy)phenoxy]-6-(3-methoxyphenoxy)benzoic acid], the “More active among these compounds” value in the data set on ETA and ETB receptors is reported as “More active”. In the case of `Cc1cccc(Oc2cccc(Oc3ccc4c(c3)OCO4)c2C(=O)O)c1` [Example 11, 2-[3,4-(methylenedioxy)phenoxy]-6-(3-methylphenoxy)benzoic acid], the “More active among these compounds” value with ETA and ETB receptors is “More active”.

Regarding “4-[2-carboxy-3,4-(methylenedioxy)phenoxy]-6-[3,4-(methylenedioxy)phenoxy]-2-(methylthio)-pyrimidine”, on human ETA receptors, the “ETA selective (interact with greater affinity with one receptor sub-type than with the other)” value was “ETA selective”. In the case of `COc1ccc(Oc2cccc(Oc3ccc4c(c3)OCO4)c2C(=O)O)cc1` [Example 1, 2-(4-Methoxyphenoxy)-6-[3,4-(methylenedioxy)phenoxy]benzoic acid], the “More active among these compounds” value in the data set on ETA and ETB receptors was “More active”.

On to `O=C(O)CCc1cc2c(cc1Oc1cccc(Oc3ccc4c(c3)OCO4)c1C(=O)O)OCO2` [Example 19, 2-(3,4-methylenedioxy)phenoxy-6-[2-carboxyethyl-4,5-(methylenedioxy)phenoxy]benzoic acid], for which the “ETB selective (interact with greater affinity with one receptor sub-type than with the other)” value at human ETB receptor was “ETB selective”. Besides, the “More active among these compounds” value in the data set on ETA and ETB receptors is given as “More active”. On to `O=C(O)c1c(Oc2ccc3c(c2)OCO3)cccc1Oc1ccc2c(c1)OCO2` [Example 5, 2,6-bis-[3,4-(methylenedioxy)phenoxy]benzoic acid], for which the “More active among these compounds” value with ETA and ETB receptors is recorded as “More active”. “4,6-Bis[2-carboxy-3,4-(methylenedioxy)phenoxy]-2-(methylthio)pyrimidine”: on human ETA receptors, the “ETA selective (interact with greater affinity with one receptor sub-type than with the other)” value is listed as “ETA selective”. For `Cc1ccc(Oc2cccc(Oc3ccc4c(c3)OCO4)c2C(=O)O)cc1` [Example 2, 2-[3,4-(methylenedioxy)phenoxy]-6-(4-methylphenoxy)benzoic acid], the “More active among these compounds” value in the data set on ETA and ETB receptors is reported as “More active”. For `O=C(O)/C=C/c1cc2c(cc1Oc1cccc(Oc3ccc4c(c3)OCO4)c1C(=O)O)OCO2` [Example 20, 2-(3,4-methylenedioxy)phenoxy-6-[2-carboxy-trans-ethenyl-4,5-(methylenedioxy)phenoxy]benzoic acid], the “More active among these compounds” value in the data set on ETA and ETB receptors was “More active”. Turning to “2-[3,4-(methylenedioxy)phenoxy]-6-[(2-carboxyethyl)-4-methoxyphenoxy]benzoic acid [Example 23]”, in the data set on ETA and ETB receptors, the “More active among these compounds” value is on record as “More active”. `COc1ccc(Sc2cccc(Oc3ccc4c(c3)OCO4)c2C(=O)O)cc1` [Example 12, 2-(4-methoxythiophenoxy)-6-[3,4-(methylenedioxy)phenoxy]benzoic acid]: the “More active among these compounds” value in the data set on ETA and ETB receptors is on record as “More active”. Still for that read-out and setting: the entry for `CCCc1cc2c(cc1Oc1cccc(Oc3ccc4c(c3)OCO4)c1C(=O)O)OCO2` [Example 18, 2-(3,4-methylenedioxy)phenoxy-6-[2-propyl-4,5-(methylenedioxy)phenoxy]benzoic acid] is “More active”; for `Cc1ccc(Oc2cccc(Oc3ccc4c(c3)OCO4)c2C(=O)O)c(Br)c1` [Example 7, 2-(2-Bromo-4-methylphenoxy)-6-[3,4-(methylenedioxy)phenoxy]benzoic acid] it is “More active”; for “Ethyl 2-[3,4-(methylenedioxy)phenoxy]-6-[2-(carboxyethyl)-4-methoxyphenoxy]benzoate [Example 22]” it is “More active”. `O=C(O)Cc1ccc(Oc2cccc(Oc3ccc4c(c3)OCO4)c2C(=O)O)cc1` [Example 14, 2-[(4-Carboxymethyl)phenoxy]-6-[3,4-(methylenedioxy)phenoxy]benzoic acid]: on human ETA receptors, the “ETA selective (interact with greater affinity with one receptor sub-type than with the other)” value is given as “ETA selective”.

In general, melting point refers to the temperature of the solid-liquid transition.
